≈ marks a conversion by molar mass, not a printed value.
Legend:
Solubility in LSB = assay type: physicochemical; settings: Low Sodium Buffer (LSB), aqueous buffer
hTRPM8 = target: T1, hTRPM8 (Homo sapiens, UniProt Q7Z2W7); test: hTRPM8 cell based agonist assay (section 1.1); settings: mammalian cell line stably expressing TRPM8
T1 construct: expressed in transfected cells
Source text: The present compounds are useful as modulators of TRPM8. The activity of TRPM8 can be readily monitored in cell based assays using fluorescent calcium-sensitive dyes, membrane potential dyes, or sodium-sensitive dyes. The activity of TRPM8 can also be monitored with electrophysiological set-ups, such as patch-clamping and two-electrode voltage clamping. A mammalian cell line derivative which stably expresses TRPM8 was used in biological assays in association with testing the present compounds with cool-tasting or -feeling properties (Servant et al. US 2007/0259354 A1 and references cited therein). Typical compound concentrations tested were 100 μM, 50 μM, 10 μM, 1 μM, and 0.5 μM. The present compounds have shown strong activity as agonists of hTRPM8. Assay results for compounds are illustrated in Table 1 below. Specifically, the Compounds listed in Table 1.1, e.g., Compounds 1.A1 to Compounds 1.A9 are the specific compounds as described herein. For example, Compounds 1.A1 is Example 1.1.

panelists = test: Sensory study, cooling line scale vs WS-3 (section 1.2); assay type: in vivo, human
Description: Three typical sensory studies are described below each followed by a table summarizing sensory results of selected compounds of the invention (Tables 1.2 to 1.4).
All samples made with Low Sodium Buffer (LSB) pH ˜7.1 and contain 0.1% ethanol.
Compounds are rated on a 15 point line scale where 45 μM WS-3 (N-Ethyl-p-menthane-3-carboxamide) is ranked as a 5 in cool intensity. In most cases our compounds are tested to determine at what concentration the cooling intensity is equivalent to 45 μM WS-3. In each test, the panelist is presented with a 0 μM control sample, a 45 μM WS-3 control sample and the experimental compound sample and asked to rate the cooling intensity of each sample. Panelists are also asked to rate bitterness. In the table below there was no significant bitterness detected unless otherwise noted. Also, in the table below, n represents the number of tests completed for a given experiment (#panelists×#repetitions).

T1 sequence (Q7Z2W7 whole entry): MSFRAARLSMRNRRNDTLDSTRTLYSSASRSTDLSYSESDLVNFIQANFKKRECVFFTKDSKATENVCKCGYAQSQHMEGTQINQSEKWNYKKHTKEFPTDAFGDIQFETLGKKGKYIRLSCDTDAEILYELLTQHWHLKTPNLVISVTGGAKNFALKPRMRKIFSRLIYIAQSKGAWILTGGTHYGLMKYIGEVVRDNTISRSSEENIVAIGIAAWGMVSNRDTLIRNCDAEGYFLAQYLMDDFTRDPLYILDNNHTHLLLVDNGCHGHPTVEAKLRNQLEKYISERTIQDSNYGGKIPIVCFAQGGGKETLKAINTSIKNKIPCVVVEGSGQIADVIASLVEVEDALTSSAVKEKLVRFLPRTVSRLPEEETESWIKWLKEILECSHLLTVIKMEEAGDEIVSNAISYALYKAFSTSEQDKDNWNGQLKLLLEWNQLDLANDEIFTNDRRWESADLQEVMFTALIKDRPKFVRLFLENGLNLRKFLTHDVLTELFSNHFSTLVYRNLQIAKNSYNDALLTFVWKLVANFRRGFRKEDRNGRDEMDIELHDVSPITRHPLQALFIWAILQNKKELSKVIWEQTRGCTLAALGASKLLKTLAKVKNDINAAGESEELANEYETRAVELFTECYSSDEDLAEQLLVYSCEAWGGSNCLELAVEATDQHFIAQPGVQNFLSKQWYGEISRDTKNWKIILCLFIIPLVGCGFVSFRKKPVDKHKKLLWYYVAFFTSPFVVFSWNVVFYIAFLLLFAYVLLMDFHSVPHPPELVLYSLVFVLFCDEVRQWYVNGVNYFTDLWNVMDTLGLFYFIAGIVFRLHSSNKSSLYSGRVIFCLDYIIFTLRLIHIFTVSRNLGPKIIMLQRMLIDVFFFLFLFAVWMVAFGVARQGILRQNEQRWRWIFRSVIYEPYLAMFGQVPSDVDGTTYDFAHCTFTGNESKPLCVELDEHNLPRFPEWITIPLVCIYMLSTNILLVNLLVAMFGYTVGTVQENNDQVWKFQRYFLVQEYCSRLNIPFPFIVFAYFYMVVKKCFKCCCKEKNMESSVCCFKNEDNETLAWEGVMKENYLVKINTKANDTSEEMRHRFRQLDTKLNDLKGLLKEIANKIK

solubility (Solubility in LSB): 337 µM (≈ 105 µg/mL)
EC50 (hTRPM8): 0.034 µM
hTRPM8 EC50 Ratio (hTRPM8): 100.0
Compound: CC1=NN(CC(=O)c2ccccc2)C(=O)C1(C)C1CCCCC1 (centres unmarked) [Example 1.1, 4-cyclohexyl-3,4-dimethyl-1-(2-oxo-2-phenylethyl)-1H-pyrazol-5(4H)-one]
Average Cooling (panelists; Table 1.2, 5 μM, 15 point line scale, n = 30): 4.7
Sensory Results (panelists; compound concentration compared in cooling intensity with 45 uM WS-3, LSB pH ~7.1, 0.1% ethanol): 5 uM~45 uM WS-3

From patent US11028052B2, “Compounds useful as modulators of TRPM8” (Firmenich Incorporated, priority 2013, dated 2021)
